Measured values as given in patent US10244779B2, “Method of improving stability of sweet enhancer and composition containing stabilized sweet enhancer” (SENOMYX, INC., priority 2010, dated 2019).

Experiment: Photostability of Compound A in various mediums (water, brewed coffee, tea, TBHQ in water; FIG. 1)
Format: physicochemical
Details: TBHQ 200 ppm in water
Experimental: The equivalent sunlight exposure time for 24 hours in the Q-Sun at a constant temperature of 25° C. and irradiance of 450 mW/m^2 @340 nm is estimated to be equivalent to approximately 15.9 days of direct sunlight in the Southwestern United States.
FIG. 1 illustrates the effect of coffee and tea on rate of photo-degradation of Compound A relative to water alone.

Row | Compound | effect on the rate of photo-degradation of Compound A
1 | CC(C)(C)c1cc(O)ccc1O [tert-butyl hydroquinone] | marginal effect

Experiment: not given
Details: not given

Row | Compound | melting point
2 | CCC(CC)NC(=O)C(C)(C)COc1cccc2nc(C)c(C(=O)O)c(N)c12 [Example 148, 4-amino-5-(2,2-dimethyl-3-oxo-3-(pentan-3-ylamino)propoxy)-2-methyl-quinoline-3-carboxylic Acid] | 172 to 174 °C
3 | Cc1nc2cccc(OCC(C)(C)NC(=O)CN3CCOCC3)c2c(N)c1C(=O)O [Example 149, 4-amino-2-methyl-5-(2-methyl-2-(2-morpholinoacetamido)propoxy)quinoline-3-carboxylic Acid] | 173 to 175 °C
4 | Cc1nc2cccc(OCC(C)(C)C(=O)NCC(C)C)c2c(N)c1C(=O)O [Example 150, 4-amino-5-(3-(isobutylamino)-2,2-dimethyl-3-oxopropoxy)-2-methylquinoline-3-carboxylic Acid] | 176 to 179 °C
5 | Cc1nc2cccc(OCC(C)(C)C(=O)NCC3CCC3)c2c(N)c1C(=O)O [Example 151, 4-amino-5-(3-((cyclobutylmethyl)amino)-2,2-dimethyl-3-oxopropoxy)-2-methylquinoline-3-carboxylic Acid] | 170 to 172 °C
6 | CCC(=O)N1CCC(COc2cccc3nc(C)c(C(=O)O)c(N)c23)CC1 [Example 153, 4-amino-2-methyl-5-((1-propionylpiperidin-4-yl)methoxy)quinoline-3-carboxylic Acid] | 168 to 170 °C
7 | CNC(=O)[C@H]1CC[C@H](Oc2cccc3nc(C)c(C(=O)O)c(N)c23)CC1 [Example 154, 4-amino-2-methyl-5-(((1,4)-trans-4-(methylcarbamoyl)cyclohexyl)oxy)quinoline-3-carboxylic Acid] | 195 to 198 °C
8 | CCCOc1cccc2c1C(N)=NS(=O)(=O)N2 [Example 158, 4-Amino-5-(propyloxy)-1H-benzo[c][1,2,6]thiadiazine-2,2-dioxide] | 229 to 230 °C

The next lines start with the values.

Row | melting point | Compound
9 | > 260 °C | Nc1nc(=O)[nH]c2sc3c(c12)CCOC3 [Example 159, 4-Amino-5,6-(5′,7′-dihydro-4′H-[2′,3′-c]pyrano)thieno[2,3-d]-pyrimidine-2(1H)-one]
10 | 225 to 226 °C | CCCNC(=O)C(C)(C)COc1cccc2c1C(N)=NS(=O)(=O)N2 [Example 197, 3-(4-Amino-2,2-dioxide-1H-benzo[c][1,2,6]thiadiazin-5-yloxy)-2′,2′-dimethyl-N-propylpropanamide]
11 | 235 to 236 °C | CC(C)(COc1cccc2c1C(N)=NS(=O)(=O)N2)NC(=O)c1ccccc1 [Example 198, N-(1-(4-amino-2,2-dioxide-1H-benzo[c][1,2,6]thiadiazin-5-yloxy)-2′-methylpropan-2′-yl)benzamide]
